BindingDB's records for doi:10.1021/jm500853v (University of Hawaii At Hilo, 2014)

Target: DNA gyrase A/A/B/B tetramer (Escherichia coli (strain K12), UniProt P0AES4+P0AES6)
Experiment: Inhibition of Escherichia coli DNA gyrase assessed as supercoiled plasmid DNA formation after 30 mins by electrophoretic analysis

Row | IC50 [µM] | SMILES
1 | 500 | C=CCOc1ccccc1/C=C/C(=O)c1ccc(O)cc1O
2 | 250 | CC1(C)C2CC=C(/C=C/C(=O)c3ccc(O)cc3O)C1C2 (stereo not drawn)
3 | 500 | CC[C@H](C)C(=O)c1c(O)cc(O)cc1OC/C=C(\C)CCC=C(C)C [Olympicin A]
